One assay concerns the target T1, UGT71E5 (Carthamus tinctorius, UniProt A0A1P8C3B1).
T1 sequence (A0A1P8C3B1 1-480): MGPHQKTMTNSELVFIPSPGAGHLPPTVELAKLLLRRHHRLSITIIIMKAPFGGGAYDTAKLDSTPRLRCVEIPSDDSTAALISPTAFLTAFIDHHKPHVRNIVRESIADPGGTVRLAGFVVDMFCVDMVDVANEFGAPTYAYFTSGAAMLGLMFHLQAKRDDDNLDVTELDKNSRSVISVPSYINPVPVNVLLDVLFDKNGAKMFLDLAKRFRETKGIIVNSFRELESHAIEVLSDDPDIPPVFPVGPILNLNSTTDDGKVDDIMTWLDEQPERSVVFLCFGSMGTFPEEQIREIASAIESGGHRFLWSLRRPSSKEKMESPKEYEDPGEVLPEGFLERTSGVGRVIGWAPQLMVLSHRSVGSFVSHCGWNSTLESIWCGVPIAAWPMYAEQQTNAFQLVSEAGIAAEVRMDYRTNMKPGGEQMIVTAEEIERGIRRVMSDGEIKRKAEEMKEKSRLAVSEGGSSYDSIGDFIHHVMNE
As to the kind of experiment: HPLC-MS conversion. It counts as biochemical. Particulars: 0.4 mmol/L acceptor, 0.8 mmol/L UDP-Glc, pH 7.4.

A further assay has as its system DoBBS8. As to the kind of experiment: HPLC quantification of dihydroresveratrol, nonlinear regression. It counts as biochemical, Dendrobium officinale. To be noted: malonyl-CoA 2.0 mmol/L fixed; 30 °C, 30 min.

In turn, `Oc1ccc(CCc2cc(O)cc(O)c2)cc1` [compound 1, dihydro-resveratrol] yielded a conversion rate on UGT71E5 of 94%. In the case of `CC(C)(COP(=O)(O)OP(=O)(O)OC[C@H]1O[C@@H](n2cnc3c(N)ncnc32)[C@H](O)[C@@H]1OP(=O)(O)O)[C@@H](O)C(=O)NCCC(=O)NCCSC(=O)CCc1ccc(O)cc1` [p-hydroxyphenylpropionyl-CoA], in the assay with DoBBS8, the Michaelis constant (Km) came to 61.8 µM.

One may read the Km as the concentration of substrate that gives half-maximal velocity.

(Values after PMC10149896 (Acta Pharmaceutica Sinica. B, 2022).)
